In US9663473B2 (Actelion Pharmaceuticals Ltd, priority 2013, dated 2017):

molecular target: T1, recombinant human ALX receptor (Homo sapiens, UniProt P25090); experiment: Intracellular calcium measurements (FLIPR), ALX receptor agonistic activity; assay type: cell-based; settings: HEK293-hALXR-Gα16 cells, Fluo-4 calcium signal, normalized to WKYMVm 10 nM
T1 construct: expressed in transfected cells; host or cells: HEK293 (HEK293-hALXR-Gα16)
T1 sequence (P25090 1-351): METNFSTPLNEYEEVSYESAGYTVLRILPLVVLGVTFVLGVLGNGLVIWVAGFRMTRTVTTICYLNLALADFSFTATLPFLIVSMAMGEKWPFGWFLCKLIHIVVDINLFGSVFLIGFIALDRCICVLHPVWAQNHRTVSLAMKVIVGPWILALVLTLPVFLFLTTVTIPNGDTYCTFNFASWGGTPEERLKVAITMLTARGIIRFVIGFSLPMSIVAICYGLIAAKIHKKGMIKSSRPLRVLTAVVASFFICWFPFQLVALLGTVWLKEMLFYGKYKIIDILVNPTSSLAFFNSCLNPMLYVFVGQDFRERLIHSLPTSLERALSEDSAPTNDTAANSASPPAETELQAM
Method: The ALX receptor agonistic activity of the compounds of formula (I) is determined in accordance with the following experimental method.
Intracellular Calcium Measurements:
Cells expressing recombinant human ALX receptor and the G-protein Gα16 (HEK293-hALXR-Gα16) were grown to 80% confluency in Growing Medium (GM). Cells were detached from culture dishes with a cell dissociation buffer (Invitrogen, 13151-014), and collected by centrifugation at 1′000 rpm at rt for 5 min in Assay Buffer (AB) (equal parts of Hank's BSS (Gibco, 14065-049) and DMEM without Phenol Red (Gibco, 11880-028)). After 60 min incubation at 37° C. under 5% CO2 in AB supplemented with 1 μM Fluo-4 (AM) (Invitrogen, F14202) and 20 mM HEPES (Gibco, 15630-056), the cells were washed and resuspended in AB. They were then seeded onto 384-well FLIPR assay plates (Greiner, 781091) at 50′000 cells in 70 μl per well and sedimented by centrifugation at 1′000 rpm for 1 min. Stock solutions of test compounds were made up at a concentration of 10 mM in DMSO, and serially diluted in AB to concentrations required for activation dose response curves. WKYMVm (Phoenix Peptides) was used as a reference agonist. A FLIPR Tetra instrument (Molecular Devices) was operated according to the manufacturer's standard instructions, adding 4 μl of test compound dissolved at 10 mM in DMSO and diluted prior to the experiment in assay buffer to obtain the desired final concentration. Changes in fluorescence were monitored before and after the addition of test compounds at lex=488 nm and lem=540 nm. Emission peak values above base level after compounds addition were exported after base line subtraction. Values were normalized to high-level control (WKYMVm compound, 10 nM final concentration) after subtraction of the base line value (AB addition).

| SMILES | EC50 [nM] |
| --- | --- |
| COc1ccc(CC(NC(=O)N[C@H]2CC[C@H](O)CC2)c2nc3cc(C(F)(F)F)ccc3[nH]2)cc1 (relative stereo) [Example 82, 1-(trans-4-Hydroxycyclohexyl)-3-(2-(4-methoxyphenyl)-1-(5-(trifluoromethyl)-1H-benzo[d]imidazol-2-yl)ethyl)urea] | 2.3 |
| COc1ccc(C[C@@H](NC(=O)NC[C@H]2CCCC[C@@H]2O)c2nc3ccccc3[nH]2)cc1 (relative stereo) [Example 103, 1-((R)-1-(1H-Benzo[d]imidazol-2-yl)-2-(4-methoxyphenyl)ethyl)-3-(((1R*,2S*)-2-hydroxycyclohexyl)methyl)urea] | 309 |
| COc1ccc(C[C@@H](NC(=O)N[C@H]2CC[C@H](O)c3ccccc32)c2nc3ccccc3[nH]2)cc1 (relative stereo) [Example 134, 1-((R)-1-(1H-Benzo[d]imidazol-2-yl)-2-(4-methoxyphenyl)ethyl)-3-((1 S*,4S*)-4-hydroxy-1,2,3,4-tetrahydronaphthalen-1-yl)urea] | 107 |
| CCOC(=O)[C@@H]1CCCC[C@H]1NC(=O)N[C@H](Cc1ccc(OC)cc1)c1nc2ccccc2[nH]1 (relative stereo) [Example 161, (1R*,2R*)-Ethyl 2-(3-((R)-1-(1H-benzo[d]imidazol-2-yl)-2-(4-methoxyphenyl)ethyl)ureido)cyclohexanecarboxylate] | 0.6 |
| COc1ccc(C[C@@H](NC(=O)N[C@@H]2CCCC[C@H]2C(N)=O)c2nc3ccccc3[nH]2)cc1 (relative stereo) [Example 163, (1R*,2R*)-2-(3-((R)-1-(1H-Benzo[d]imidazol-2-yl)-2-(4-methoxyphenyl)ethyl)ureido)cyclohexanecarboxamide] | 120 |
| COc1ccc(C[C@@H](NC(=O)N[C@@H]2CCNC[C@@H]2F)c2nc3ccccc3[nH]2)cc1 (relative stereo) [Example 164, 1-((R)-1-(1H-Benzo[d]imidazol-2-yl)-2-(4-methoxyphenyl)ethyl)-3-((3S*,4R*)-3-fluoropiperidin-4-yl)urea] | 25 |
| COc1ccc(C[C@@H](NC(=O)N[C@H]2CCNC[C@@H]2F)c2nc3ccccc3[nH]2)cc1 (relative stereo) [Example 165, 1-((R)-1-(1H-Benzo[d]imidazol-2-yl)-2-(4-methoxyphenyl)ethyl)-3-((3S*,4S*)-3-fluoropiperidin-4-yl)urea] | 27 |
| COc1ccc(C[C@@H](NC(=O)N[C@H]2CNC[C@@H]2F)c2nc3ccccc3[nH]2)cc1 (relative stereo) [Example 184, 1-((R)-1-(1H-Benzo[d]imidazol-2-yl)-2-(4-methoxyphenyl)ethyl)-3-((3S*,4S*)-4-fluoropyrrolidin-3-yl)urea] | 829 |
| COc1ccc(C[C@@H](NC(=O)N[C@@H]2CNC[C@@H]2F)c2nc3ccccc3[nH]2)cc1 (relative stereo) [Example 185, 1-((R)-1-(1H-Benzo[d]imidazol-2-yl)-2-(4-methoxyphenyl)ethyl)-3-((3R*,4S*)-4-fluoropyrrolidin-3-yl)urea] | 143 |
| COc1ccc(CC(NC(=O)N[C@H]2CC[C@H](O)CC2)c2nc3ccc(F)cc3[nH]2)c(F)c1 (relative stereo) [Example 244, 1-(1-(6-Fluoro-1H-benzo[d]imidazol-2-yl)-2-(2-fluoro-4-methoxyphenyl)ethyl)-3-(trans-4-hydroxycyclohexyl)urea] | 1.1 |

The next lines start with the values.

| EC50 [nM] | SMILES |
| --- | --- |
| 62 | COc1ccc(C[C@@H](NC(=O)N[C@@H]2CCCC[C@@H]2O)c2nc3ccccc3[nH]2)cc1 (relative stereo) [Example 145, 1-((R)-1-(1H-Benzo[d]imidazol-2-yl)-2-(4-methoxyphenyl)ethyl)-3-((1R*,2S*)-2-hydroxycyclohexyl)urea] |
| 9.5 | COc1ccc(CC(NC(=O)N[C@H]2CC[C@H](O)CC2)c2nc3ccccc3[nH]2)cc1F (relative stereo) [Example 167, 1-(1-(1H-Benzo[d]imidazol-2-yl)-2-(3-fluoro-4-methoxyphenyl)ethyl)-3-(trans-4-hydroxycyclohexyl)urea] |
| 38 | COc1ccc(C[C@@H](NC(=O)N[C@@H]2CC[C@H](O)C2)c2nc3ccccc3[nH]2)cc1 (relative stereo) [Example 171, 1-((R)-1-(1H-Benzo[d]imidazol-2-yl)-2-(4-methoxyphenyl)ethyl)-3-((1R*,3S*)-3-hydroxycyclopentyl)urea] |
| 15 | COc1ccc(C[C@@H](NC(=O)N[C@H]2CC[C@H](O)C2)c2nc3ccccc3[nH]2)cc1 (relative stereo) [Example 172, 1-((R)-1-(1H-Benzo[d]imidazol-2-yl)-2-(4-methoxyphenyl)ethyl)-3-((1 S*,3S*)-3-hydroxycyclopentyl)urea] |
| 8.1 | O=C(NC(Cc1ccc(Br)c(F)c1)c1nc2ccccc2[nH]1)N[C@H]1CC[C@H](O)CC1 (relative stereo) [Example 187, 1-(1-(1H-Benzo[d]imidazol-2-yl)-2-(4-bromo-3-fluorophenyl)ethyl)-3-(trans-4-hydroxycyclohexyl)urea] |
| 3.7 | O=C(NC(Cc1ccc(Br)cc1F)c1nc2ccccc2[nH]1)N[C@H]1CC[C@H](O)CC1 (relative stereo) [Example 188, 1-(1-(1H-Benzo[d]imidazol-2-yl)-2-(4-bromo-2-fluorophenyl)ethyl)-3-(trans-4-hydroxycyclohexyl)urea] |
| 1.9 | COc1ccc(CC(NC(=O)N[C@H]2CC[C@H](O)CC2)c2nc3ccccc3[nH]2)c(F)c1 (relative stereo) [Example 210, 1-(1-(1H-Benzo[d]imidazol-2-yl)-2-(2-fluoro-4-methoxyphenyl)ethyl)-3-(trans-4-hydroxycyclohexyl)urea] |
| 6.6 | COc1ccc(CC(NC(=O)N[C@H]2CC[C@](C)(O)CC2)c2nc3ccccc3[nH]2)cc1F (relative stereo) [Example 226, 1-(1-(1H-Benzo[d]imidazol-2-yl)-2-(3-fluoro-4-methoxyphenyl)ethyl)-3-(trans-4-hydroxy-4-methylcyclohexyl)urea] |
| 97 | COc1ccc(CC(NC(=O)N[C@H]2CC[C@@](C)(O)CC2)c2nc3ccccc3[nH]2)cc1F (relative stereo) [Example 227, 1-(1-(1H-Benzo[d]imidazol-2-yl)-2-(3-fluoro-4-methoxyphenyl)ethyl)-3-(cis-4-hydroxy-4-methylcyclohexyl)urea] |
| 2.6 | COc1ccc(CC(NC(=O)N[C@H]2CC[C@H](O)CC2)c2nc3ccccc3[nH]2)c(F)c1F (relative stereo) [Example 232, 1-(1-(1H-Benzo[d]imidazol-2-yl)-2-(2,3-difluoro-4-methoxyphenyl)ethyl)-3-(trans-4-hydroxycyclohexyl)urea] |
| 3.2 | COc1cc(F)c(CC(NC(=O)N[C@H]2CC[C@H](O)CC2)c2nc3ccccc3[nH]2)c(F)c1 (relative stereo) [Example 235, 1-(1-(1H-Benzo[d]imidazol-2-yl)-2-(2,6-difluoro-4-methoxyphenyl)ethyl)-3-(trans-4-hydroxycyclohexyl)urea] |
| 36 | O=C(NC(Cc1ccc(C(F)(F)F)c(F)c1)c1nc2ccccc2[nH]1)N[C@H]1CC[C@H](O)CC1 (relative stereo) [Example 237, 1-(1-(1H-Benzo[d]imidazol-2-yl)-2-(3-fluoro-4-(trifluoromethyl)phenyl)ethyl)-3-(trans-4-hydroxycyclohexyl)urea] |
| 12 | O=C(NC(Cc1ccc(C(F)(F)F)cc1F)c1nc2ccccc2[nH]1)N[C@H]1CC[C@H](O)CC1 (relative stereo) [Example 240, 1-(1-(1H-Benzo[d]imidazol-2-yl)-2-(2-fluoro-4-(trifluoromethyl)phenyl)ethyl)-3-(trans-4-hydroxycyclohexyl)urea] |
| 138 | COc1c(F)cc(CC(NC(=O)N[C@H]2CC[C@H](O)CC2)c2nc3ccccc3[nH]2)cc1F (relative stereo) [Example 241, 1-(1-(1H-Benzo[d]imidazol-2-yl)-2-(3,5-difluoro-4-methoxyphenyl)ethyl)-3-(trans-4-hydroxycyclohexyl)urea] |
| 10 | COc1cc(F)c(CC(NC(=O)N[C@H]2CC[C@H](O)CC2)c2nc3ccccc3[nH]2)cc1F (relative stereo) [Example 247, 1-(1-(1H-Benzo[d]imidazol-2-yl)-2-(2,5-difluoro-4-methoxyphenyl)ethyl)-3-(trans-4-hydroxycyclohexyl)urea] |
